Biological target: Proto-oncogene tyrosine-protein kinase Src (Homo sapiens, UniProt P12931)
Test: Inhibitory activity against SH2 domain of human p60 c-Src tyrosine kinase using surface plasmon resonance (SPR) assay.

Chain of Proto-oncogene tyrosine-protein kinase Src (P12931 2-536 limits assumed): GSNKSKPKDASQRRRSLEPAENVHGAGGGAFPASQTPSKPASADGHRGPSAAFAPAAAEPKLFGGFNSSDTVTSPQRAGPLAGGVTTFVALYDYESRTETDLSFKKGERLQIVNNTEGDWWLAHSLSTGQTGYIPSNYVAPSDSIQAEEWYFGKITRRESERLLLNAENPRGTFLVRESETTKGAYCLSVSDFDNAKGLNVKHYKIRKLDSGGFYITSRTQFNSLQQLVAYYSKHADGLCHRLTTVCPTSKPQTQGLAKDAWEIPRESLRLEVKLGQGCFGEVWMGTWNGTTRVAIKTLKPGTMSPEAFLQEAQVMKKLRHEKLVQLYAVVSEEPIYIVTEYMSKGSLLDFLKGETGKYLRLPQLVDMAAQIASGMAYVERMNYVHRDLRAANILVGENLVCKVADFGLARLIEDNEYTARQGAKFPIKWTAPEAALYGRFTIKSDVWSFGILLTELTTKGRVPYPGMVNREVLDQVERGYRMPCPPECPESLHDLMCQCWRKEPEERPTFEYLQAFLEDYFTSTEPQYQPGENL

SMILES | IC50
O=[N+]([O-])c1cc2c(cc1C(O)P(=O)(O)O)OCO2 (stereo not drawn) | 0.3 mM
O=C(O)CC(O)(CC(=O)O)C(=O)O [CITRIC ACID] | > 40 mM
O=P(O)(O)O [PHOSPHORIC ACID] | > 40 mM

— ChEMBL document CHEMBL1145907, “Requirements for specific binding of low affinity inhibitor fragments to the SH2 domain of (pp60)Src are identical to those for high affinity binding of full length inhibitors” (J Med Chem, 2003)
